Values joined by “and” are separate entries in the source; they are usually repeats but may differ in a detail not shown here. Equal values may be shown once.
Columns and labels:
RIP1 kinase = target: T1, RIP1 kinase (Homo sapiens, UniProt Q13546); assay: fluorescent polarization based binding assay; details: mean of a minimum of 2 experiments
T1 sequence (Q13546 1-375 limits assumed): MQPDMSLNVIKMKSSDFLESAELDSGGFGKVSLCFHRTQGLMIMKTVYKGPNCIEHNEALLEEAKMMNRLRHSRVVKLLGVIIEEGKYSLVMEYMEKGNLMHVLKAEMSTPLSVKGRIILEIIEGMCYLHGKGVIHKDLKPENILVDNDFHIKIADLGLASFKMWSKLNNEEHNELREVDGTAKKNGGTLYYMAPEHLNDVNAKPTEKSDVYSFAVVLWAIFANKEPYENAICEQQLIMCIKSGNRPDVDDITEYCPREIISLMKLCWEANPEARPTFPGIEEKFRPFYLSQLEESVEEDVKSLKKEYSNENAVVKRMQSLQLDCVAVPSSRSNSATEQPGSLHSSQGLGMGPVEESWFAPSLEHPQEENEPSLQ
Source text: A fluorescent polarization based binding assay was used to assess the activity of the compounds of this invention, the details of which are disclosed in International Patent Appln. No. PCT/IB2014/059004, now, International Patent Appln. Pub.

[1] = system: mouse L929 fibrosarcoma cells; assay: necroptosis assay in L929 cells; assay type: cell-based; details: L929 cells, viability by cellular ATP (Cell Titer-Glo), read-out: pIC50, inhibited necrosis in L929 cells (converted)
Description: The efficacy of RIP1 inhibitors can be tested […] in vitro using a human monocytic leukemia U937 or mouse L929 fibrosarcoma cells in a necroptosis assay. As determined using the method described in S. He et al., Cell, 137(6):1100-1111 (2009) and International Patent Appln. No. PCT/IB2014/059004, now, International Patent Appln. Pub.
Viability was measured by quantitating cellular levels of ATP using the Cell Titer-Glo kit. All data are means±standard deviation of the mean.

[2] = system: TNF-driven systemic inflammatory response syndrome model; assay: TNF-driven systemic inflammatory response syndrome model (TNF/zVAD or TNF alone), temperature loss; assay type: in vivo; details: Mus musculus, po, pre-dosed 15 minutes before i.v. mouse TNF alone or with zVAD; for inhibition in vivo at 10 mg/kg: 10 mg/kg PO; for inhibition in vivo at 3 mg/kg: 3 mg/kg PO
Source text: The efficacy of RIP1 inhibitors can be tested in mice in vivo using a TNF-driven systemic inflammatory response syndrome model (L. Duprez et al. Immunity 35(6):908-918, (2011)) using TNF plus the caspase inhibitor zVAD or TNF alone. The TNF/zVAD model is terminated at ˜3 hrs and the TNF alone model is terminated at ˜8 hrs (under IACUC guidelines for temperature loss). TNF (or TNF/zVAD) induced manifestations include temperature loss, the production of numerous cytokines (including IL-6, IL-1b, MIP1β and MIP2) in the periphery, liver and intestinal inflammation and an increase of markers of cellular (LDH and CK) and liver damage (AST and ALT) in the serum. Inhibition of these TNF alone or TNF/zVAD induced manifestations can be shown by PO pre-dosing with selected compounds. For example, mice (8 mice per group) were pre-dosed PO with vehicle or compound 15 minutes before i.v. administration of mouse TNF (30 μg/mouse) alone or in combination with zVAD (0.4 mg/mouse) simultaneously. Temperature loss in the mice was measured by rectal probe. The study was terminated when the control group lost 7 degrees, per our IACUC protocol. All data are shown as means±standard error of the mean.

[3] = system: human monocytic leukemia U937 cells; assay: necroptosis assay in U937 cells; assay type: cell-based; details: viability by cellular ATP (Cell Titer-Glo); for IC50: Homo sapiens, U-937, U937 cells, read-out: pIC50, inhibited necrosis in U937 cells (converted)
Method in brief: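 Necroptosis was induced in human U937 or mouse L929 cells, and viability was quantified as cellular ATP with Cell Titer-Glo. Data are means±standard deviation.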

[4] = background statement; cited from earlier work

IC50 (RIP1 kinase) | Structure (SMILES) | IC50 [1] [nM] | inhibition in vivo at 10 mg/kg [2] [%] | IC50 [3] [nM] | other results
1 to 31.6 nM and ~15.8 nM | N#Cc1cccc([C@@H]2CC=NN2C(=O)C2CCN(c3nccc(C(N)=O)n3)CC2)c1 [Example 71, (S)-2-(4-(5-(3-cyanophenyl)-4,5-dihydro-1H-pyrazole-1-carbonyl)piperidin-1-yl)pyrimidine-4-carboxamide] | ~794 | 93 |  | 
1 to 31.6 nM and ~25.1 nM | NC(=O)c1ccnc(N2CCC(C(=O)N3N=CC[C@H]3c3cncc(F)c3)CC2)n1 [Example 109, (S)-2-(4-(5-(5-fluoropyridin-3-yl)-4,5-dihydro-1H-pyrazole-1-carbonyl)piperidin-1-yl)pyrimidine-4-carboxamide] | ~251 |  |  | inhibition in vivo at 3 mg/kg [2]: 84%
1 to 31.6 nM and 1 to 10 nM | NC(=O)c1nc(N2CCC(C(=O)N3N=CC[C@H]3c3ccccc3)CC2)ncc1F [Example 162, (S)-5-fluoro-2-(4-(5-phenyl-4,5-dihydro-1H-pyrazole-1-carbonyl)piperidin-1-yl)pyrimidine-4-carboxamide] | 1 to 100 |  | 1 to 100 | 
1 to 31.6 nM and ~31.6 nM | NC(=O)c1cc(N2CCC(C(=O)N3N=CC[C@H]3c3cncc(F)c3)CC2)ncn1 [Example 108, (S)-6-(4-(5-(5-fluoropyridin-3-yl)-4,5-dihydro-1H-pyrazole-1-carbonyl)piperidin-1-yl)pyrimidine-4-carboxamide] | ~10000 | 54 |  | pIC50, inhibited necrosis in U937 cells ([3]; U937 cells): ~7.3; inhibition in vivo at 0.1 mg/kg ([2]; 0.1 mg/kg PO): -4%; inhibition in vivo at 1 mg/kg ([2]; 1.0 mg/kg PO): -11%; inhibition in vivo at 100 mg/kg ([2]; 100 mg/kg PO): 94%

Further lines, the compound ahead of its results:

Structure (SMILES) | IC50 (RIP1 kinase) | IC50 [1] [nM] | inhibition in vivo at 10 mg/kg [2] [%] | IC50 [3] [nM] | other results
NC(=O)c1cc(N2CCC(C(=O)N3N=CC[C@H]3c3ccccc3)CC2)ncn1 [Example 32, (S)-6-(4-(5-phenyl-4,5-dihydro-1H-pyrazole-1-carbonyl)piperidin-1-yl)pyrimidine-4-carboxamide] | 1 to 31.6 nM and 1 to 10 nM and ~10 nM | ~316 | 104 |  | 
NC(=O)c1cc(N2CCC(C(=O)N3N=CC[C@H]3c3cc(F)cc(F)c3)CC2)ncn1 [Example 85, (S)-6-(4-(5-(3,5-difluorophenyl)-4,5-dihydro-1H-pyrazole-1-carbonyl)piperidin-1-yl)pyrimidine-4-carboxamide] | 1 to 31.6 nM and 1 to 10 nM and ~10 nM | ~316 |  |  | inhibition in vivo at 3 mg/kg [2]: 88%
Nc1cc(N2CCC(C(=O)N3N=CC[C@H]3c3ccccc3)CC2)ncn1 [Example 20, (S)-(1-(6-aminopyrimidin-4-yl)piperidin-4-yl)(5-phenyl-4,5-dihydro-1H-pyrazol-1-yl)methanone] | 1 to 31.6 nM and ~15.8 nM | ~1000 | 92 |  | 
NC(=O)c1cnc(N2CCC(C(=O)N3N=CC[C@H]3c3ccccc3)CC2)nc1 [Example 131, (S)-2-(4-(5-phenyl-4,5-dihydro-1H-pyrazole-1-carbonyl)piperidin-1-yl)pyrimidine-5-carboxamide] | ~39.8 nM | ~3980 | 83 | ~158 | 
CN1C(=O)C(Cc2c[nH]c3ccccc23)NC1=S (stereo not drawn) [Necrostatin-1] |  |  |  |  | oral bioavailability [4]: poor
O=C(C1CCN(c2ncc3cn[nH]c3n2)CC1)N1N=CC[C@H]1c1ccccc1 [Example 52, (S)-(1-(1H-pyrazolo[3,4-d]pyrimidin-6-yl)piperidin-4-yl)(5-phenyl-4,5-dihydro-1H-pyrazol-1-yl)methanone] | 1 to 31.6 nM and 1 to 10 nM | 1 to 100 |  | 1 to 100 | 
C#Cc1cc(N2CCC(C(=O)N3N=CC[C@H]3c3ccccc3)CC2)ncn1 [Example 156, (S)-(1-(6-ethynylpyrimidin-4-yl)piperidin-4-yl)(5-phenyl-4,5-dihydro-1H-pyrazol-1-yl)methanone] | 1 to 31.6 nM and 1 to 10 nM | 1 to 100 |  | 1 to 100 | 
CC(=O)Nc1ccnc(N2CCC(C(=O)N3N=CC[C@H]3c3ccccc3)CC2)n1 [Example 36, (S)-N-(2-(4-(5-phenyl-4,5-dihydro-1H-pyrazole-1-carbonyl)piperidin-1-yl)pyrimidin-4-yl)acetamide] | 1 to 31.6 nM and 1 to 10 nM | 1 to 100 |  | 1 to 100 | 
